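Interpolation was linear, between the two tested concentrations surrounding the appropriate level; five concentrations were tested over 48 hours in 96-well plates. TGI: total growth inhibition.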
Assays:
Test in all cases: DTP human tumour cell line panel, 48 h
MALME-3M melanoma = test system: MALME-3M melanoma
T-47D breast = test system: T-47D breast
MCF7 breast = test system: MCF7 breast
SF-268 CNS = test system: SF-268 CNS
HS 578T breast = test system: HS 578T breast
KM12 colon = test system: KM12 colon
SN12C renal = test system: SN12C renal
BT-549 breast = test system: BT-549 breast
MDA-MB-231 breast = test system: MDA-MB-231 breast
786-0 renal = test system: 786-0 renal
UO-31 renal = test system: UO-31 renal
CCRF-CEM leukemia = test system: CCRF-CEM leukemia
NCI-H522 lung = test system: NCI-H522 lung
SK-MEL-2 melanoma = test system: SK-MEL-2 melanoma
MDA-MB-435 = test system: MDA-MB-435
SF-539 CNS = test system: SF-539 CNS
OVCAR-3 ovarian = test system: OVCAR-3 ovarian
HOP-92 NSCLC = test system: HOP-92 NSCLC

Structure (SMILES) | TGI (MALME-3M melanoma) [µM] | TGI (T-47D breast) [µM] | TGI (MCF7 breast) [µM] | TGI (SF-268 CNS) [µM] | TGI (HS 578T breast) [µM] | TGI (KM12 colon) [µM] | TGI (SN12C renal) [µM] | TGI (BT-549 breast) [µM] | TGI (MDA-MB-231 breast) [µM] | TGI (786-0 renal) [µM] | TGI (UO-31 renal) [µM] | TGI (CCRF-CEM leukemia) [µM] | TGI (NCI-H522 lung) [µM] | TGI (SK-MEL-2 melanoma) [µM] | TGI (MDA-MB-435) [µM] | TGI (SF-539 CNS) [µM] | TGI (OVCAR-3 ovarian) [µM] | TGI (HOP-92 NSCLC) [µM]
NC(=O)NNCc1c(-c2ccccc2)no[n+]1[O-] | > 100 | > 100 | > 100 | > 100 | > 100 | > 100 | > 100 | > 100 | > 100 | > 100 | > 100 | > 100 | > 100 | > 100 | > 100 | > 100 | > 100 | > 100
CCc1cc2c(c3c1CCCC3)CC1(Cc3ccc(C(=O)OC)cc3C1)C2 (stereo unspecified) | > 100 | > 100 | > 100 | > 100 | > 100 | > 100 | > 100 | > 100 | > 100 | > 100 | > 100 | 56 | > 100 | > 100 | > 100 | > 100 | > 100 | > 100
c1ccc(-c2c3c(nc4c2CC[C@H]4NC2=NCCN2)[C@@H](NC2=NCCN2)CC3)cc1 | > 100 | > 100 | > 100 | > 100 | > 100 | > 100 | > 100 | > 100 | > 100 | > 100 | > 100 | > 100 | > 100 | > 100 | > 100 | > 100 | > 100 | > 100
COc1cc(/C=N/c2ccccn2)cc(OC)c1OC | > 100 | > 100 | > 100 | > 100 | > 100 | > 100 | > 100 | > 100 | > 100 | > 100 | > 100 | > 100 | > 100 | > 100 | 58.6 | > 100 | > 100 | > 100
CCN(CC)c1ccc2cc(C(=O)NCc3ccccc3)c(=N)oc2c1 | 63.6 | > 28.6 | > 100 | > 100 | > 88 | > 100 | > 100 | > 100 | 97 | > 100 | 97.3 | > 100 | 97.3 | > 100 | > 100 | > 100 | > 100 | > 100
CCN(CC)CCCNc1ccc([N+](=O)[O-])c2nc3ccc(OC)cc3c(N)c12 | > 10 | > 10 | > 6.17 | 3.57 | 2.68 | 3.16 | 3.64 | 2.9 | 3.29 | 2.9 | > 10 | 5.71 | 4.69 | > 10 | 3.12 | 3.46 | > 6.31 | > 10
CC(=O)C1(C)CC(C#N)(C#N)C(C#N)=C1N (stereo unspecified) | > 100 | > 100 | > 100 | > 100 | > 100 | > 100 | > 100 | > 100 | > 100 | > 100 | > 100 | > 100 | > 100 | > 100 | > 100 | > 100 | > 100 | 55.3
